Where a SMILES comes first, the peptide text is derived from it. Bridges are numbered along the chain shown (N, C = ends).
Key:
[1] = biological target: T1, KV2.1 (Homo sapiens, UniProt Q14721); assay: KV2.1 currents, whole-cell patch-clamp; assay type: cell-based; settings: Eo1a 10 μM, 5 min, HEK293, human KV2.1, n = 3
T1 construct: expressed in transfected cells; host or cells: HEK293 cells stably expressing β1/β2, transient transfection with Lipofectamine 2000
T1 sequence (Q14721 1-858): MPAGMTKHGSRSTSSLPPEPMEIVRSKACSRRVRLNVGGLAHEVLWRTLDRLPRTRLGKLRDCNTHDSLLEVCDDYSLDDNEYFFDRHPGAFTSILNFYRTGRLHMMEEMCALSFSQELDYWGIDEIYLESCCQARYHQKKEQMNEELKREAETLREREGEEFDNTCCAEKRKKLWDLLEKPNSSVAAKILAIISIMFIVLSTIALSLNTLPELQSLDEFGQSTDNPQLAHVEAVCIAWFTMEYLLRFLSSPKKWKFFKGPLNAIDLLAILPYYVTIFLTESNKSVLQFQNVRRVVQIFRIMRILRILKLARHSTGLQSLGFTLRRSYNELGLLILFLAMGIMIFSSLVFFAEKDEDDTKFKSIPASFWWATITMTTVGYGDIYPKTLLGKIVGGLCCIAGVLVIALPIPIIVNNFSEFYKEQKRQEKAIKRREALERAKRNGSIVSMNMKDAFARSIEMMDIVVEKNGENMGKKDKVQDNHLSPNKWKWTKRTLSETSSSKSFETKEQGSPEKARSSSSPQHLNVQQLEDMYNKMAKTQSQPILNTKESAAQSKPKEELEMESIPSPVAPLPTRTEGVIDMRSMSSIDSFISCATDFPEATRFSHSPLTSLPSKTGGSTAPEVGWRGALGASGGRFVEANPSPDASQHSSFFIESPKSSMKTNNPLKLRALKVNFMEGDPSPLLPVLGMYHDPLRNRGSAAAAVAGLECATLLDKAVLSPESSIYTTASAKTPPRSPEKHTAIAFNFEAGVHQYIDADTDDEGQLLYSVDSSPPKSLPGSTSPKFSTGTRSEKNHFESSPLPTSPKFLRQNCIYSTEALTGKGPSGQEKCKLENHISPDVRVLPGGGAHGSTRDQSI
Protocol: (§1) Human Embryonic Kidney (HEK) 293 cells stably expressing human NaV1.1 to NaV1.7/β1 (SB Drug Discovery, Glasgow, United Kingdom), Chinese Hamster Ovary (CHO) cells stably expressing human NaV1.8/β3 in a tetracycline-inducible system (ChanTest, Cleveland, OH, United States), and HEK293 cells stably expressing rat transient receptor potential vanilloid 1 (TRPV1) were cultured as previously described ([Yin et al., 2020]). Human KV2.1 and NaV1.7 mutants were transiently transfected into HEK293 cells stably expressing β1/β2 using Lipofectamine 2000 (Thermo Fisher Scientific, Scoresby, VIC, Australia) and used for patch-clamp experiments 48 h after transfection. Cells were grown in an incubator at 37°C with 5% CO2 and passaged every 3–4 d (at 70–80% confluency) using TrypLE Express (Thermo Fisher Scientific).
Automated whole-cell patch-clamp recordings were performed with a QPatch-16 automated electrophysiology platform (Sophion Bioscience, Ballerup, Denmark) using single-hole (QPlate 16 with a standard resistance of 2 ± 0.4 MΩ) or multi-hole (QPlate 16X with a standard resistance 0.2 ± 0.04 MΩ, NaV1.8 only) as previously described ([McMahon et al., 2020]).
The extracellular solution (ECS) consisted of (in mM) 145 NaCl (replaced with 70 choline chloride for NaV1.4, NaV1.5 and NaV1.7), 4 KCl, 2 CaCl2, 1 MgCl2, 10 HEPES, and 10 glucose, pH to 7.4 with NaOH (adjusted to 305 mOsm/L with sucrose). For NaV recordings the intracellular solution (ICS) consisted of (in mM) 140 CsF, 1 EGTA, 5 CsOH, 10 HEPES, and 10 NaCl, pH to 7.3 with CsOH (adjusted to 320 mOsm/L with sucrose). For KV2.1 recordings the ICS consisted of (in mM) 50 KCl, 60 KF, 10 EGTA, 10 HEPES, 10 NaCl pH to 7.3 with KOH (adjusted to 320 mOsm/L with sucrose). TTX (1 μM) was added to the ECS for NaV1.8 recordings to inhibit background endogenous TTX sensitive current in CHO cells.
KV2.1 currents were acquired using a holding potential of −80 mV and a 300 ms pulse to +50 mV every 20 s (0.05 Hz). Eo1a was incubated for 5 min and compared to buffer control.

[2] = tested on: NaV1.8 KO mice; assay: Spontaneous pain after intraplantar injection, NaV1.8 knockout mice; assay type: in vivo, mouse; settings: Eo1a intraplantar, significantly reduced vs WT, *p < 0.05 unpaired t-test, mean ± SEM, n = 3–4 mice
Excerpt: Adult male C57BL/6J mice aged 4–8 weeks were sourced from the Animal Resource Centre (Canning Vale, Western Australia). Adult male NaV1.8 knockouts ([Nassar et al., 2004]) (aged 8–11 weeks) and wild-type littermates were housed and tested at University College London. Animals were housed in groups of three or four per cage under 12-h light-dark cycles and were provided with standard rodent chow and water ad libitum. Ethical approval for experiments involving animals was obtained from The University of Queensland animal ethics committee (TRI/IMB/093/17, IMB/PACE/421/18) and the United Kingdom Home Office (project licence PPL 70/7382). All experiments were conducted in accordance with the International Association for the Study of Pain Guidelines for the Use of Animals in Research and the Australian Code of Practice for the Care and Use of Animals for Scientific Purposes, 8th edition (2013).
Eo1a (1 μM or 10 μM) was diluted in saline/0.1% BSA and administered by intraplantar injection to the left hind paw of mice in a volume of 40 μl under isoflurane (3%) anaesthesia, and spontaneous pain behaviours (licks, bites, shakes, and lifts of the hind paw) were counted by a blinded investigator for up to 40 min after the injection.

[3] = tested on: TRPV1; assay: TRPV1 calcium assay (FLIPR); assay type: cell-based; settings: Eo1a 10 μM, HEK293, rat TRPV1, Calcium 4 dye, 300 s, compared with capsaicin 300 nM, n = 3 wells
Protocol: as §1
The activity of Eo1a at rTRPV1 was assessed using the assay described previously ([Yin et al., 2020]). Briefly, the TRPV1 activator capsaicin (300 nM) and Eo1a (10 μM) were added to cells loaded with Calcium 4 no-wash dye (Molecular Devices) and changes in fluorescence were assessed using a FLIPR^TETRA (excitation 470–495 nm, emission 515–575 nm) every 1 s for 300 s. Fluorescence responses were normalized to baseline fluorescence (ΔF/F) and plotted versus time using ScreenWorks 3.2.0.14.

CC[C@H](C)[C@@H]1NC(=O)[C@H](CCCNC(=N)N)NC(=O)[C@@H]2CSSC[C@@H]3NC(=O)CNC(=O)CNC(=O)[C@H](CC(C)C)NC(=O)[C@H](Cc4ccccc4)NC(=O)[C@H](Cc4c[nH]c5ccccc45)NC(=O)[C@H](CCCNC(=N)N)NC(=O)[C@@H](NC(=O)[C@@H](N)CC(=O)O)CSSC[C@H](NC(=O)[C@H](CSSC[C@@H](C(=O)N[C@@H](C)C(=O)N[C@@H](Cc4c[nH]c5ccccc45)C(=O)N[C@@H](CC(=O)O)C(=O)NCC(=O)N[C@H](C(=O)N[C@@H](Cc4ccccc4)C(N)=O)[C@@H](C)O)NC(=O)[C@H](Cc4ccc(O)cc4)NC(=O)[C@H](CCCCN)NC(=O)[C@H]([C@@H](C)CC)NC(=O)[C@H](Cc4ccc(O)cc4)NC(=O)CNC(=O)[C@H](CC(=O)O)NC1=O)NC(=O)[C@H](CC(=O)O)NC(=O)[C@H](CO)NC(=O)[C@H](CC(=O)O)NC(=O)[C@H](CCCCN)NC(=O)[C@H](CO)NC3=O)C(=O)N[C@@H](CCCCN)C(=O)N[C@@H](Cc1c[nH]cn1)C(=O)N[C@@H](CC(C)C)C(=O)N[C@@H](C)C(=O)N2 [Eo1a] (H-DCRWFLGGCSKDSDCCKHLACRIDGYIKYCAWDGTF-NH2; disulfide 2-16, 9-21, 15-30 (inferred); N-terminus assumed)
τactivation of KV2.1 ([1]; 300 ms pulse to +50 mV, buffer 5.1 ± 0.4 ms): 13.6 ± 2.7 ms | late current size of KV2.1, I250 ms ([1]; holding −80 mV, 300 ms pulse to +50 mV, buffer 6.25 ± 0.9 nA): 6.34 ± 0.9 nA | KV2.1 late current, inhibitory activity [1]: no inhibitory activity | spontaneous pain (flinches) [2]: 216 ± 26 Flinches/15 min | activity at TRPV1 (Ca2+ dye fluorescence over baseline) [3]: minimal activity

From PMC8795738, “The Tarantula Venom Peptide Eo1a Binds to the Domain II S3-S4 Extracellular Loop of Voltage-Gated Sodium Channel NaV1.8 to Enhance Activation” (Frontiers in Pharmacology, 2022)
